Results published in patent publication US7947280B2 (priority 2003, dated 2011).
Entries after “also recorded” stand apart in the source; their conditions may differ.

Columns and labels:
[1] = test system: superoxide production in aortic tissue of apoE knockout mice; experiment: Lucigenin-enhanced chemiluminescence of aortic superoxide; assay type: in vivo, mouse
Experimental: Lucigenin-enhanced chemiluminescence. Total aortic superoxide was measured by lucigenin-enhanced chemiluminescence as described previously. Aortas were harvested flushed with Krebs-HEPES buffer, opened longitudinally and divided into halves. Vessels were gassed with 95% oxygen/5% carbon dioxide in warmed Krebs-HEPES buffer for 30 minutes before measurements of chemiluminescence in a luminometer (manufacturer, location) using 20 μmol/L lucigenin. One half of each vessel was incubated in L-NAME (1 mmol/L). After measuring baseline readings for 4 minutes, samples were equilibrated and dark adapted for 5 mins, and chemiluminescence was recorded for 10 minutes. Recordings were performed blinded to the samples identity. Results were expressed as counts per second per milligram of tissue dry weight.

[2] = test system: superoxide production in aortic sections; experiment: Dihydroethidium oxidative fluorescence microtopography; assay type: in vivo, mouse
Experimental: Oxidative fluorescent microtopography. Superoxide was detected in the layers of the vessel wall using fluorescent probe dihydroethidium as described previously. Fresh segments of upper descending thoracic aorta were frozen in OCT compound. […] Molecular Probes). Images were obtained on a confocal microscope (Bio-Rad MRC-1024 laser; filter settings: excitation filter 488 nm; emission filter 550 nm). 2-hydroxyethidium fluorescence was measured from high power (60× mag) images. Endothelium by quantifying fluorescence (intensity×area) on the luminal side of the internal elastic lamina, media between the internal and external elastic lamina, and adventitia outside the external elastic lamina. Quantification was performed using Image Pro Plus software (Media Cybernetics, Silver Springs, Md.). Medial Analysis was performed blind to the samples identity.

C57B/16 mice = experiment: Magnetic resonance imaging after intraperitoneal apelin-12 injection; assay type: in vivo, mouse; details: post apelin-12 300 μg/kg intraperitoneal, one hour prior to scanning; n=9
Experimental: Magnetic resonance imaging. […] Platinum needle ECG leads were inserted subcutaneously. Respiration was monitored by means of a pneumatic pillow sensor positioned against the abdomen. Mouse body temperature was maintained during scanning at 37° C. by a flow of heated air thermostatically controlled by a rectal temperature probe. Magnetic resonance images were acquired on a 4.7T Oxford magnet controlled by a Varian Inova console (Varian, Palo Alto, Calif.) using a transmit-receive, quadrature, volume coil with an inner diameter of 3.5 cm. Image acquisition was gated to respiration and to the ECG R wave (SA Instruments, Stony Brook, N.Y.). Coronal and sagittal scout images led to the acquisition of multiple contiguous 1 mm thick, short axis slices orthogonal to the interventricular septum. […] Planimetry measurements of end diastolic and end systolic dimension were derived offline from short axis views of the left ventricle at the level of the papillary muscles using ImageJ software (National Institutes of Health, Bethesda, Md.). Ejection fraction was calculated as [[…]. Data Analysis. […] Exact p values are reported for all comparisons.

APJ [3] = target: T1, APJ (Homo sapiens, UniProt P35414); details: cited from earlier work
T1 sequence (P35414 1-380): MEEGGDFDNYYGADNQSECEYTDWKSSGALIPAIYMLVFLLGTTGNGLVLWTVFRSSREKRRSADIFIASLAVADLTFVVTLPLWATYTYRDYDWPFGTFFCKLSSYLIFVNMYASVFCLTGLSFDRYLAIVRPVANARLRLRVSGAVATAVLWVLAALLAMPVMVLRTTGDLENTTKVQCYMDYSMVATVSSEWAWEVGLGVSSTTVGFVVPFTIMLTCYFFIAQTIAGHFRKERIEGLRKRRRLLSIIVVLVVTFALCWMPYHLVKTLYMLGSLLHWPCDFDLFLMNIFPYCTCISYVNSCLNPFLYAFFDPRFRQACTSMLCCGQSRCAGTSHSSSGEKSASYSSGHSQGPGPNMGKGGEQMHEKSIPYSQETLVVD

ApoE-KO mice [4] = experiment: Atherosclerotic lesion analysis in ApoE-KO mice; assay type: in vivo, mouse
Experimental: Animals. Mice were maintained in temperature-controlled (20° C. to 22° C.) environment with a 12-hour light-dark cycle. […] All mice were C57BL/6J ApoE-KO male mice (Jackson Laboratories, Bar Harbor, […].) between the ages of 8-12 weeks. […] Animal procedures were carried out in accordance with the Institutional Review Board Guidelines at Stanford University.
Tissue preparation, histology and lesion quantification. Mice were euthanized 28 days following implantation of osmotic mini-pumps. The thoracic cage was removed and the animal perfused with phosphate buffered saline solution (PBS) for 2 minutes. The entire aorta and vein graft were exposed and the periadventitial tissue and scar tissue dissected and removed. Subsequently mice were perfusion fixed in situ with 4% phosphate-buffered paraformaldehyde. In some animals aorta and lung were removed fresh for biochemical assays.
Atherosclerotic Lesion Analysis Atherosclerosis lesion area was determined as described previously. Briefly, the arterial tree was perfused with PBS (pH 7.3) and then perfusion fixed with phosphate-buffered paraformaldehyde (3%, pH 7.3). The heart and full length of the aorta-to-iliac bifurcation was exposed and dissected carefully from any surrounding tissues. Aortas were then opened along the ventral midline and dissected free of the animal and pinned out flat, intimal side up, onto black wax. Aortic images were captured with a digital camera (DMC1) mounted on a Leica MZ6 stereomicroscope and analyzed using Fovea Pro (Reindeer Graphics, Asheville, N.C.). Percent lesion area was calculated as total lesion area divided by total surface area.

ApoE-KO mice [5] = experiment: AngII induced abdominal aortic aneurysm formation model; assay type: in vivo, mouse
Experimental: (§1) Animals. Mice were maintained in temperature-controlled (20° C. to 22° C.) environment with a 12-hour light-dark cycle. Sterile water and standard chow diet were available ad libitum. All mice were C57BL/6J ApoE-KO male mice (Jackson Laboratories, Bar Harbor, […].) between the ages of 8-12 weeks. […] Animal procedures were carried out in accordance with the Institutional Review Board Guidelines at Stanford University.
Abdominal aortic aneurysm formation, sudden death and vein graft procedure. […] Abdominal aortic aneurysm was defined as ≧50% enlargement of the maximal abdominal aorta diameter. Mice that were found dead without any preceding signs of suffering were defined as sudden death.

ApoE-KO mice [6] = experiment: Vein graft neointimal hyperplasia model; assay type: in vivo, mouse; details: AngII infusion
Experimental: as §1

[7] = test system: NFκB, NFAT, AP-1 and SRE reporter constructs; experiment: Luciferase reporter assays of AngII nuclear signaling in HEK-293 cells; assay type: cell-based; details: HEK-293 cells co-transfected with AT1; AngII stimulation
Text: cDNA Constructs APJ expression construct was purchased from cDNA.org. AT1R construct was obtained from Dr. Marc Caron. AT1R transcript was inserted into a pEGFP-N1 vector (Clonetech). The NF-kB and SRE luciferase reporter constructs were obtained from BD Biosciences.
(§2) Cells were immediately lysed.

AT1R = target: T2, AT1R (Rattus norvegicus, UniProt P25095); experiment: Competitive ligand binding with FAM-labeled AngII in HEK-293 cells; details: unlabeled ligand 100 nM; HEK-293 cells transfected with AT1R
T2 construct: expressed in transfected cells; host or cells: HEK-293
T2 sequence (P25095 1-359): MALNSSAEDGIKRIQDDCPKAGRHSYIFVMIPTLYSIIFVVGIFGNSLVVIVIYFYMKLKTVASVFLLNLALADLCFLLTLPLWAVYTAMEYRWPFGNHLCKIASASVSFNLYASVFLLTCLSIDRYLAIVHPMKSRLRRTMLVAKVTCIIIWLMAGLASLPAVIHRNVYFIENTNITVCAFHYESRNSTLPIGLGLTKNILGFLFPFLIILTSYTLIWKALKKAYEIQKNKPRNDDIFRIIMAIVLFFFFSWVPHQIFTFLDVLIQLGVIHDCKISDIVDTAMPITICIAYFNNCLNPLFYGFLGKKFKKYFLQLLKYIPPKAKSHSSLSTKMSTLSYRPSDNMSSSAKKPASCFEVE

[8] = test system: AT1R and APJ heterodimerization; experiment: AT1R-APJ receptor heterodimerization by immunoprecipitation; assay type: cell-based; details: AngII, 1 and 6 hours of treatment; co-transfected cells
Experimental: as §2
Immunoprecipitation and Western Blotting Immunoprecipitation was performed as previously described (REF). In brief, cells were lysed using 10× Cell Lysis Buffer (Cell Signaling Technologies CITY). Lysates were precleared with protein G and immunoprecipitation was performed with the respective antibodies at concentration of 1 mg/mL for 24 hrs at 4C. Protein G agarose was added and incubated for additional 2 hours. Western blotting on SDS-PAGE gels were performed as previously described, and the bands were visualized using the enhanced chemiluminescence system (Amersham Biosciences).

APJ [9] = target: T1, APJ; details: cited from earlier work; remark: listed apart in the source

In the case of `COC(=O)[C@@H](N)CCCNC(=N)N[N+](=O)[O-]` [L-NAME], the “increase in total superoxide production on incubation with L-NAME” value ([1]; aorta from apelin treated mice, L-NAME 1 mmol/L) is reported as 2 fold and the “total superoxide levels on incubation with L-NAME” value ([1]; aorta from saline, AngII or AngII+apelin treated animals, L-NAME 1 mmol/L) is reported as “not significantly different”.

In the case of `COc1cc(C(C)=O)ccc1O` [apocynain], the “total medial fluorescence after incubation with NADPH oxidase inhibitor” value ([2]; aortic sections from apelin treated mice) is reported as “did not find this effect” and the “total medial fluorescence after incubation with NADPH oxidase inhibitor” value ([2]; aortic sections from saline, AngII and apelin+AngII treated mice, 50 μmol/l) is reported as “dramatically reduced; also recorded: blocked”.

For “H-Arg-Pro-Arg-Leu-Ser-His-Lys-Gly-Pro-Met-Pro-Phe-OH [apelin-12]”, the Ejection fraction (C57B/16 mice) was “upward trend”, the “heart rate (inverse of R-R interval of electrocardiogram)” value (C57B/16 mice) was “significant increase” and the “left ventricular end diastolic area” value (C57B/16 mice) was “significant reduction; also recorded: significantly decreased”. The “activation of APJ” value (APJ [3]) was “activate APJ”.

In the case of “H-Leu-Val-Gln-Pro-Arg-Gly-Ser-Arg-Asn-Gly-Pro-Gly-Pro-Trp-Gln-Gly-Gly-Arg Arg-Lys-Phe-Arg-Arg-Gln-Arg-Pro-Arg-Leu-Ser-His-Lys-Gly-Pro-Met-Pro-Phe-OH (H-LVQPRGSRNGPGPWQGGRRKFRRQRPRLSHKGPMPF-OH; listed as Homo sapiens) [apelin-36]”, the “activation of APJ” value (APJ [3]) is given as “activate APJ”.

With “angiotensin II (DRVYIHPF) [AngII, peptide infused to promote vascular disease and heart failure; AT1R ligand, reference compound]” the “increase of descending aorta atherosclerosis vs saline treated controls” value (ApoE-KO mice [4]; AngII 1.4 mg/kg/day, 4 week minipump infusion) was 82%, the “progression of atherosclerosis in aortic root (FIG. 17)” value (ApoE-KO mice [4]; osmotic minipump during high fat diet exposure) was “do not alter” and the “animals with aneurysm formation” value (ApoE-KO mice [5]; AngII for four weeks) was 11/12. For the same compound, the “incidence of AAA formation within 4 weeks” value (ApoE-KO mice [5]; single agent infusion) was 92%, the “increase of vein graft wall area vs saline treated controls” value (ApoE-KO mice [6]) was 33% and the “increase in total chemiluminescence (superoxide)” value ([1]; AngII infusion) was 10 fold. The “reporter transcription (NFκB, NFAT, AP-1, SRE)” value [7] was “significant increase”, the “competition for binding of FAM-AngII (10 nM) to AT1R” value (AT1R) was “competes” and the AT1R-APJ receptor heterodimerization [8] was “significantly enhanced”. The “binding to APJ” value (APJ [9]) was “does not bind”.

For apelin-17, the “activation of APJ” value (APJ [3]) is listed as “activate APJ”.
